Measured values as given in publication PMC5762859, “Distribution analysis of epertinib in brain metastasis of HER2-positive breast cancer by imaging mass spectrometry and prospect for antitumor activity” (Scientific Reports, 2018).
Read-outs that look alike come from different tables or passages of the source.

Tests used:
[1] = Quantitative MALDI-IMS of drug in brain metastases of the breast cancer IVM (BR2, BR3); format: in vivo, mice; conditions: for concentration at 4 h / concentration at 8 h: female, BALB/cAJcl-nu/nu, mouse, tumor (brain metastasis) in brain sections, po, 50 mg/kg, IMS; for concentration at 4 h: 4 h after single oral 50 mg/kg; for concentration at 8 h: 8 h after single oral 50 mg/kg
Experimental: BTB integrity in the IVM was assessed by measuring the fluorescence intensity of Texas-Red® dextran in the metastatic regions or brain parenchyma. Metastatic regions were defined as cancer cell clusters with DAPI staining in the same brain section (Fig. 2E and Supplementary Fig. S2C).
(§1) All experimental protocols were approved by the Institutional Animal Care and Use Committee of Shionogi & Co., Ltd (Osaka, Japan) and performed in accordance with the Guidelines for Animal Experiments of Shionogi & Co., Ltd, which meet the ethical standards required by the law and the guidelines about the experimental animals in Japan. Nude mice (BALB/cAJcl-nu/nu, CLEA Japan) were used for in vivo studies. All mice were female and six to nine weeks old at the time of implantation. […] Plasma was separated by centrifugation at 3,000 rpm for 15 min at 4 °C and stored at −80 °C until analysis. After blood sampling, brain tissues were immediately excised, frozen on dry ice, and stored at −80 °C prior to sectioning.
In the experimental brain metastasis of breast cancer or lung cancer (IVM), a cell suspension containing 2.0 × 10^6 cells (BR2), 1.7 × 10^6 cells (BR3), or 4.0 × 10^5 cells (NCI-H1975-luc) was implanted into the left ventricle of anaesthetized mice (Supplementary Fig. S1). In the intracranial implantation mice model, the cell suspension containing 3.1 × 10^5 cells was implanted into the craniotomy region (2 mm to the left of the bregma and 1 mm anterior to the coronal suture). For measurement of bioluminescence, 0.2 mL of 10 mg/mL luciferin solution was injected intravenously into anesthetized mice via the tail vein and the photons emitted from tumor measured by IVIS Imaging System 200 (Caliper Life Sciences).
Frozen brain tissues were cut into 10-µm sections using a cryostat (Leica CM3050 S; Leica Microsystems Inc., Wetzlar, Germany) at −20 °C. Sections were thaw-mounted onto glass microscope slides (Superfrost; Thermo Fisher Scientific Inc.) and stored at −80 °C until use. […] Standard solutions were spotted onto the glass microscope slides at 1 µL.
Matrix-coated sections were analyzed using a linear ion trap mass spectrometer with a MALDI source (MALDI LTQ XL, Thermo Fisher Scientific Inc.) and a nitrogen laser (337 nm; 60 Hz). Laser energy and raster step size were set at 30 µJ and 100 µm, respectively. All compounds were detected in positive-ion mode using the product ion scans of their [M + H]^+ ions. […] Heme B was detected by MS3 (m/z 616 → 557 → 498) as a blood biomarker.
Spectral data were acquired using Xcalibur 2.0.7 software (Thermo Fisher Scientific Inc.) and the localization and concentration of all compounds in the brain sections were analyzed using Quantinetix 1.7.10 software (ImaBiotech, Loos, France). The fluorescence intensity of Texas-Red® dextran and immunostaining intensity of HER2 were analyzed using a BZ-X analyzer (Keyence). Statistical analyses were performed using SAS software (version 9.4).

HER2 = system: HER2; design: method as in PMID 24837299; conditions: between 6 and 24 h after a single administration; cited from earlier work
[2] = Quantitative MALDI-IMS of drug in brain metastases of the lung cancer IVM (NCI-H1975-luc); format: in vivo, mice; conditions: female, BALB/cAJcl-nu/nu, mouse, tumor (brain metastasis) in brain sections, 4 h after oral 100 mg/kg
From the text: as §1, with “After blood sampling, brain tissues were immediately excised, frozen on dry ice, and stored at −80 °C prior to sectioning.” left out
In the experimental brain metastasis of breast cancer or lung cancer (IVM), a cell suspension containing 2.0 × 10^6 cells (BR2), 1.7 × 10^6 cells (BR3), or 4.0 × 10^5 cells (NCI-H1975-luc) was implanted into the left ventricle of anaesthetized mice (Supplementary Fig. S1). […] For measurement of bioluminescence, 0.2 mL of 10 mg/mL luciferin solution was injected intravenously into anesthetized mice via the tail vein and the photons emitted from tumor measured by IVIS Imaging System 200 (Caliper Life Sciences). […]
Matrix-coated sections were analyzed using a linear ion trap mass spectrometer with a MALDI source (MALDI LTQ XL, Thermo Fisher Scientific Inc.) and a nitrogen laser (337 nm; 60 Hz). […] All compounds were detected in positive-ion mode using the product ion scans of their [M + H]^+ ions. […]

EGFR = system: EGFR; design: method as in PMID 24837299; conditions: between 6 and 24 h after a single administration; cited from earlier work
[3] = Plasma concentration in the lung cancer IVM; format: in vivo, mice; conditions: female, BALB/cAJcl-nu/nu, mouse, 4 h after oral 100 mg/kg
From the text: as §1
(§2) The mixture was stirred for 10 min and centrifuged at 5,000 rpm for 5 min at 10 °C, and 1 µL of the supernatant was injected into the LC-MS/MS system. An ultra-HPLC system (Nexera LC-20A, Shimadzu Corp., Kyoto, Japan) with a triple quadrupole mass spectrometer (API 5000^TM, AB Sciex, Forester City, CA, USA) was used for LC/MS/MS analysis. The LC-MS/MS system was controlled by Analyst 1.4.2 (AB Sciex) software. Chromatographic separation was performed using a Cadenza CD-C18 HT column (50 × 2.0 mm i.d., 3 µm; Imtakt Corp., Kyoto, Japan).

[4] = Plasma exposure after single oral administration in nude mice; format: in vivo; conditions: mouse, single oral 50 mg/kg, read-out: Plasma exposure (AUC0–24 h)
[5] = Plasma concentration by LC-MS/MS in the breast cancer IVM; format: in vivo, mice; conditions: female, BALB/cAJcl-nu/nu, mouse, po, 50 mg/kg; for concentration at 4 h: 4 h after single oral 50 mg/kg; for concentration at 8 h: 8 h after single oral 50 mg/kg
From the text: as §1, §2

[6] = design: method as in PMID 25434923; conditions: human, cited from earlier work
[7] = Plasma and brain pharmacokinetics after single oral administration in mice implanted intracranially with MDA-MB-361 cells; conditions: for concentration at 8 h / Tmax / concentration at 0.5 h / concentration at 1 h / concentration at 2 h / concentration at 4 h / concentration at 24 h / AUC(0-t) / Cmax: female, mouse, po; for AUC0–24 h, brain / Cmax, brain: single oral 20 mg/kg, mice
From the text: as §1, §2

[8] = system: albumin and α-1 acid glycoprotein; design: method as in PMID 25547867; conditions: cited from earlier work
[9] = BALB/cAJcl-nu/nu nude, brain, 20 mg/kg
[10] = BALB/cAJcl-nu/nu, brain, 20 mg/kg
[11] = BALB/cAJcl-nu/nu, plasma, 20 mg/kg

SMILES	concentration at 4 h ([1]; BR2 IVM) [ng/g]	concentration at 4 h ([1]; BR3 IVM) [ng/g]	concentration at 8 h ([1]; BR3 IVM) [ng/g]	Inhibitory activity on HER2 phosphorylation at 24 h (HER2)	concentration at 4 h [2] [ng/g]	Inhibitory activity on EGFR phosphorylation at 24 h (EGFR)	concentration at 4 h [3] [ng/mL]	AUC(0-t) [4] [ng·h/mL]	concentration at 4 h ([5]; BR2 IVM) [ng/mL]	concentration at 4 h ([5]; BR3 IVM) [ng/mL]	concentration at 8 h ([5]; BR3 IVM) [ng/mL]	concentration at 8 h [7, 9] [ng/g]	Tmax [7, 10] [h]	concentration at 0.5 h [7, 10] [ng/g]	concentration at 1 h [7, 10] [ng/g]	concentration at 2 h [7, 10] [ng/g]	concentration at 4 h [7, 10] [ng/g]	concentration at 24 h [7, 10] [ng/g]	AUC(0-t) [7, 11] [ng·h/mL]	Cmax [7, 11] [ng/mL]	further results
CC#CC(=NOCC1COCCN1)c1ccc2ncnc(Nc3ccc(OCc4cccc(F)c4)c(Cl)c3)c2c1 (stereo not shown) [Epertinib]	2930	2700	2710	persisted at 24 h	6700	persisted at 24 h	2760 ± 660	9980	1440 ± 50	1300 ± 120	920 ± 300	23.8	4	10.2	12.8	23	36.3	1.7	1260	145	Concentration measured in brain metastases of the IVM with breast cancer ([1]; breast cancer IVM): 5.2 µM; Tumor concentration of epertinib relative to that of lapatinib ([1]; breast cancer IVMs, 4 h after administration): > 10 times; Plasma exposure (AUC0–24 h) ([6]; effective dose 800 mg/day): 9170 ng·h/mL; Brain concentration of epertinib relative to that of lapatinib ([7]; 4 h after oral administration, 20 mg/kg): approximately twice; concentration at 0.5 h ([7]; BALB/cAJcl-nu/nu, in vivo, 20 mg/kg): 99.8 ng/mL; Tmax [7, 11]: 2 h; concentration at 1 h [7, 11]: 113 ng/mL; concentration at 2 h [7, 11]: 145 ng/mL; concentration at 4 h [7, 11]: 115 ng/mL; concentration at 8 h [7, 11]: 54.7 ng/mL; concentration at 24 h [7, 11]: 2.1 ng/mL; AUC0–24 h, brain [7]: 409 ng·h/g; Cmax, brain [7]: 36 ng/g
CS(=O)(=O)CCNCc1ccc(-c2ccc3ncnc(Nc4ccc(OCc5cccc(F)c5)c(Cl)c4)c3c2)o1 [Lapatinib, N-{3-chloro-4-[(3-fluorobenzyl)oxy]phenyl}-6-[5-({[2-(methylsulfonyl)ethyl]amino}methyl)-2-furyl]-4-quinazolinamine, reference compound]	160	200	190	largely disappeared	7080	largely disappeared	9360 ± 1780	34100	6690 ± 1310	2140 ± 220	630	5.8	4	11.8	15.7	10	17	0.4	4110	985	Binding to albumin and α-1 acid glycoprotein [8]: > 99.9%; Plasma exposure (AUC0–24 h) ([6]; effective dose 1250 mg/day): 27300 ng·h/mL; Tmax [7, 11]: 0.5 h; concentration at 0.5 h [7, 11]: 984 ng/mL; concentration at 1 h [7, 11]: 763 ng/mL; concentration at 2 h [7, 11]: 413 ng/mL; concentration at 4 h [7, 11]: 461 ng/mL; concentration at 8 h [7, 11]: 99.6 ng/mL; concentration at 24 h [7, 11]: 5.4 ng/mL; AUC0–24 h, brain [7]: 144 ng·h/g; Cmax, brain [7]: 17 ng/g
